Some test systems named below: OVCAR-3; HT-29; SF-539; SW-620; SK-MEL-28; HOP-62; HCC 2998; PC-3; SF-295; ACHN; NCI-H23; HL-60; UO-31; MCF7; Malme-3M; SK-MEL-2; Hs-578T; LOX IMVI; NCI-H460; SNB-75.
Holding throughout (assay): NCI-60 cell line screen, 48 h

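How tested: cells in 96-well plates exposed to compound for 48 hours at five concentrations. GI50 is the concentration that inhibits growth by half.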 Calls of active or inactive are those of the source. No stated cut-off is given here; in the data, active = GI50 up to about 1.1 µM and inactive = higher. Some results are limits rather than exact numbers.

On to `COc1cc(OC)c(/C=C\c2ccnc3ccccc23)c(OC)c1`, for which the GI50 in the assay with OVCAR-3 is 2.92 µM (inactive); with HT-29, 2.67 µM (inactive); in the assay on SF-539 it was 3.73 µM (inactive); in the assay on SW-620 it was 3.62 µM (inactive); in the assay on SK-MEL-28 it was 5.37 µM (inactive); with HOP-62, 5.19 µM (inactive). Further, the GI50 is 9.31 µM (inactive) in the assay on HCC 2998; 5.51 µM (inactive) in the assay on PC-3; 2.53 µM (inactive) in the assay with SF-295; 4.41 µM (inactive) in the assay on ACHN; 5.61 µM (inactive) with NCI-H23; 0.347 µM (active) in the assay with HL-60. The GI50 with UO-31 was 0.859 µM (active); in the assay on MCF7 it was 0.569 µM (active); with Malme-3M it was 1.34 µM (inactive); in the assay with SK-MEL-2, 3.88 µM (inactive); with Hs-578T, 2.64 µM (inactive); with LOX IMVI, 2.73 µM (inactive). Further, in the assay on NCI-H460, the GI50 was 3.2 µM (inactive).
In the case of `Cc1cc(N(CCCCl)CCCCl)ccc1/C=N/c1cccc(Cl)c1`, the GI50 in the assay on OVCAR-3 is 14.5 µM (inactive); with HT-29, 14.6 µM (inactive); with SW-620, 12.3 µM (inactive); in the assay on SK-MEL-28 it was 17.4 µM (inactive); in the assay with HCC 2998, < 0.01 µM (active); with PC-3, 12 µM (inactive). For the same compound, the GI50 with SF-295 was 17.6 µM (inactive); with ACHN it was 13.1 µM (inactive); in the assay on NCI-H23, < 0.01 µM (active); in the assay on HL-60, 13 µM (inactive); with UO-31, 10.5 µM (inactive); in the assay with MCF7, 16.2 µM (inactive). Moreover, the GI50 in the assay on Malme-3M was 8.79 µM (inactive); in the assay with SK-MEL-2, 16.4 µM (inactive); in the assay on Hs-578T, 14.3 µM (inactive); with SNB-75 it was 12.1 µM (inactive); in the assay on LOX IMVI it was 13.8 µM (inactive); in the assay on NCI-H460 it was 0.977 µM (active).
As to `COC1(c2ccccc2)N=C(S)NN=C1c1ccccc1` (stereo not given), the GI50 with OVCAR-3 is 30.9 µM (inactive); with HT-29, 44.2 µM (inactive); in the assay on SW-620, 38.6 µM (inactive); in the assay with SK-MEL-28, 85.1 µM (inactive); in the assay with HOP-62, 44.8 µM (inactive); in the assay with HCC 2998 it was 19.2 µM (inactive). The GI50 was 31.4 µM (inactive) in the assay on PC-3; 30.5 µM (inactive) in the assay with SF-295; > 100 µM (inactive) with ACHN; 36.6 µM (inactive) in the assay with NCI-H23; 21 µM (inactive) with HL-60; > 100 µM (inactive) with UO-31. The GI50 in the assay with MCF7 was 38 µM (inactive); in the assay on Malme-3M, 60.4 µM (inactive); with SK-MEL-2 it was 27.9 µM (inactive); with Hs-578T it was 42.4 µM (inactive); in the assay with SNB-75 it was 38.5 µM (inactive); with LOX IMVI, 36.1 µM (inactive). Also, the GI50 in the assay with NCI-H460 is 27.5 µM (inactive).
On to `O=C(CC(C(=O)c1cccs1)c1cccs1)c1ccccc1Cl` (stereo not given), for which the GI50 was 76.6 µM (inactive) in the assay with HT-29; > 100 µM (inactive) in the assay on SF-539; > 100 µM (inactive) in the assay on SW-620; 81.7 µM (inactive) in the assay with SK-MEL-28; > 100 µM (inactive) in the assay on HOP-62; > 100 µM (inactive) in the assay on HCC 2998. The GI50 in the assay with PC-3 is 72.9 µM (inactive); in the assay on SF-295, > 100 µM (inactive); with ACHN it was > 100 µM (inactive); with NCI-H23 it was 33 µM (inactive); in the assay with HL-60 it was 76.4 µM (inactive); with UO-31, 29.7 µM (inactive). In addition, the GI50 in the assay on MCF7 was > 100 µM (inactive); with Malme-3M it was 61.8 µM (inactive); in the assay with SK-MEL-2 it was > 100 µM (inactive); with Hs-578T, 75.3 µM (inactive); in the assay with SNB-75, > 100 µM (inactive); in the assay on LOX IMVI, > 100 µM (inactive). Further, the GI50 in the assay on NCI-H460 is 77.1 µM (inactive).
For `CC(C)(C)C1=C(Br)C(O)(C(C)(C)C)OP1(=O)c1ccccc1` (stereo not given), the GI50 with OVCAR-3, in the assay on HT-29, with SF-539, in the assay with SW-620, in the assay with SK-MEL-28 and in the assay with HOP-62 was > 100 µM (inactive) throughout. The GI50 with HCC 2998, with PC-3, in the assay with SF-295, with ACHN, in the assay with NCI-H23 and with HL-60 was > 100 µM (inactive) throughout. The GI50 in the assay with MCF7 was 0.805 µM (active); with Malme-3M, > 100 µM (inactive); in the assay with SK-MEL-2 it was > 100 µM (inactive); in the assay on Hs-578T, > 100 µM (inactive); with SNB-75, > 100 µM (inactive); in the assay on LOX IMVI, > 100 µM (inactive). Also, the GI50 in the assay with NCI-H460 is > 100 µM (inactive).
Take `CN(C)Cc1cc(C(=O)/C=C/c2ccc([N+](=O)[O-])cc2)cc(CN(C)C)c1O`: the GI50 with OVCAR-3 was 2.27 µM (inactive); in the assay with HT-29, 9.04 µM (inactive); in the assay on SF-539, 18.5 µM (inactive); in the assay on SW-620 it was 10.3 µM (inactive); with HOP-62 it was 3.72 µM (inactive); with HCC 2998 it was 17.4 µM (inactive). In addition, the GI50 was 17 µM (inactive) in the assay on PC-3; 22.3 µM (inactive) in the assay on SF-295; 3.33 µM (inactive) in the assay on ACHN; 18.3 µM (inactive) in the assay with NCI-H23; 2.07 µM (inactive) in the assay with HL-60; 16.1 µM (inactive) in the assay on UO-31. Moreover, the GI50 was 13.3 µM (inactive) in the assay on MCF7; 11.1 µM (inactive) with SK-MEL-2; 18.8 µM (inactive) in the assay with Hs-578T; 2.97 µM (inactive) in the assay on SNB-75; 2.24 µM (inactive) in the assay on LOX IMVI.
Consider `C[N+]1(c2ccccc2)C=C(c2ccccc2)SC1=S` (stereo not given), for which the GI50 in the assay on OVCAR-3 is 8.22 µM (inactive); in the assay on HT-29, 7.43 µM (inactive); with SF-539 it was > 100 µM (inactive); with SW-620, > 100 µM (inactive); with SK-MEL-28, 7.33 µM (inactive); with HOP-62, > 100 µM (inactive). For the same compound, the GI50 with HCC 2998, in the assay on PC-3, with SF-295, in the assay on ACHN, in the assay on NCI-H23 and in the assay on HL-60 was > 100 µM (inactive) in each case. Also, the GI50 in the assay with UO-31 is > 100 µM (inactive); in the assay on MCF7, 41.7 µM (inactive); in the assay on Malme-3M, 73.1 µM (inactive); in the assay with SK-MEL-2, 58.3 µM (inactive); in the assay with Hs-578T, 66.1 µM (inactive); in the assay with LOX IMVI, > 100 µM (inactive). The GI50 in the assay on NCI-H460 is 95.7 µM (inactive).
With `CCN(CCCl)c1ccc(NC(=O)c2cc(C(=O)NCCN(C)C)cc(C(=O)Nc3ccc(N(CC)CCCl)cc3)c2)cc1`, the GI50 in the assay with HT-29 is 1.57 µM (inactive); in the assay with SF-539 it was 1.62 µM (inactive); with SW-620 it was 1.76 µM (inactive); with SK-MEL-28 it was 16.6 µM (inactive); in the assay with HOP-62 it was 1.82 µM (inactive); with HCC 2998, 10.6 µM (inactive). Also, the GI50 was 2.22 µM (inactive) with PC-3; 9.46 µM (inactive) in the assay on SF-295; 5.25 µM (inactive) with ACHN; 3.33 µM (inactive) with NCI-H23; 0.0743 µM (active) in the assay on HL-60; > 100 µM (inactive) in the assay on UO-31. Moreover, the GI50 is 0.746 µM (active) with MCF7; 13.6 µM (inactive) in the assay with Malme-3M; 15.7 µM (inactive) with SK-MEL-2; 0.513 µM (active) with Hs-578T; 8.55 µM (inactive) in the assay on SNB-75; 1.36 µM (inactive) in the assay on LOX IMVI. Also, the GI50 in the assay with NCI-H460 was 0.713 µM (active).
`O=C(N/N=C(COc1ccccc1)\N=C\c1cccnc1)c1ccncc1`: the GI50 in the assay with OVCAR-3 was > 100 µM (inactive); in the assay on HT-29 it was > 100 µM (inactive); in the assay on SF-539 it was > 100 µM (inactive); in the assay on SW-620, > 100 µM (inactive); in the assay with SK-MEL-28, > 100 µM (inactive); with HOP-62, 59.6 µM (inactive). Further, the GI50 in the assay on HCC 2998, with PC-3, in the assay on SF-295, in the assay with ACHN, with NCI-H23 and with HL-60 was > 100 µM (inactive) in each case. The GI50 with MCF7 was > 100 µM (inactive); with Malme-3M, > 100 µM (inactive); in the assay with SK-MEL-2 it was > 100 µM (inactive); in the assay on Hs-578T it was > 100 µM (inactive); in the assay with SNB-75, 36.8 µM (inactive); in the assay on LOX IMVI, > 100 µM (inactive). In addition, the GI50 with NCI-H460 is > 100 µM (inactive).
On to `c1ccc(-c2cn3nc(N4CCOCC4)sc3n2)cc1`, for which the GI50 with OVCAR-3 is > 100 µM (inactive); in the assay with HT-29, > 100 µM (inactive); in the assay on SW-620, > 100 µM (inactive); in the assay on SK-MEL-28, > 100 µM (inactive); in the assay with HOP-62, 53.7 µM (inactive); with HCC 2998 it was > 100 µM (inactive). Moreover, the GI50 in the assay with PC-3, in the assay with SF-295, with ACHN, with NCI-H23, with HL-60 and in the assay with UO-31 was > 100 µM (inactive) throughout. Besides, the GI50 with MCF7 is > 100 µM (inactive); in the assay with Malme-3M, > 100 µM (inactive); with SK-MEL-2, > 100 µM (inactive); in the assay on Hs-578T, 60 µM (inactive); in the assay with SNB-75, 38.7 µM (inactive); with NCI-H460, 54.1 µM (inactive).
Turning to `C[N+]1(C)CC[N+](C)(C)[BH-]1C(O)O`, the GI50 in the assay with OVCAR-3, in the assay with HT-29, in the assay with SF-539, with SW-620, with SK-MEL-28 and in the assay on HOP-62 was > 100 µM (inactive) each time. The GI50 with HCC 2998, in the assay with PC-3, in the assay on SF-295, with ACHN, in the assay with NCI-H23 and in the assay on HL-60 was > 100 µM (inactive) each time. The GI50 in the assay with UO-31 was > 100 µM (inactive); in the assay with MCF7 it was > 100 µM (inactive); in the assay with SK-MEL-2, > 100 µM (inactive); in the assay on Hs-578T, > 100 µM (inactive); in the assay with SNB-75, 0.376 µM (active); in the assay with LOX IMVI it was > 100 µM (inactive). Besides, in the assay on NCI-H460, the GI50 is > 100 µM (inactive).

The values are drawn from ChEMBL document CHEMBL1201862, “PubChem BioAssay data set” (2004).
